In patent US7495100B2, “Synthesis of indenoisoquinolines” (Purdue Research Foundation, priority 2004, dated 2009):
Where two headings read alike, the source gives them in different places. Each block holds one molecule with its values, some of them ahead of it.

How the values were obtained:
SN12C = test: NCI screen antiproliferative activity, renal SN12C; assay type: cell-based, human; conditions: concentration corresponding to 50% growth inhibition, read-out: cytotoxicity GI50 renal SN12C
Method: (§1) The indenoisoquinolines described herein were examined for antiproliferative activity against the human cancer cell lines in the National Cancer Institute screen, in which the activity of each compound was evaluated with approximately 55 different cancer cell lines of diverse tumor origins. The MGM is based on a calculation of the average GI50 for all of the cell lines tested (approximately 55) in which GI50 values below and above the test range (10^−8 to 10^−4 molar) are taken as the minimum (10^−8 molar) and maximum (10^−4 molar) drug concentrations used in the screening test. The relative potencies of the compounds described herein in the production of topoisomerase I-mediated DNA cleavage are also listed in Table 1.

topoisomerase I (top1) = molecular target: T1, topoisomerase I (top1) (Homo sapiens, UniProt P11387); test: topoisomerase I-mediated DNA cleavage; assay type: biochemical; parameters: key: +: weak activity; ++: similar activity as the parent compound 25; +++: greater activity than the parent compound 25; ++++: similar activity as 1 μM camptothecin; conditions: tested at concentrations ranging up to 10 μM; semi-quantitative
T1 sequence (P11387 1-765): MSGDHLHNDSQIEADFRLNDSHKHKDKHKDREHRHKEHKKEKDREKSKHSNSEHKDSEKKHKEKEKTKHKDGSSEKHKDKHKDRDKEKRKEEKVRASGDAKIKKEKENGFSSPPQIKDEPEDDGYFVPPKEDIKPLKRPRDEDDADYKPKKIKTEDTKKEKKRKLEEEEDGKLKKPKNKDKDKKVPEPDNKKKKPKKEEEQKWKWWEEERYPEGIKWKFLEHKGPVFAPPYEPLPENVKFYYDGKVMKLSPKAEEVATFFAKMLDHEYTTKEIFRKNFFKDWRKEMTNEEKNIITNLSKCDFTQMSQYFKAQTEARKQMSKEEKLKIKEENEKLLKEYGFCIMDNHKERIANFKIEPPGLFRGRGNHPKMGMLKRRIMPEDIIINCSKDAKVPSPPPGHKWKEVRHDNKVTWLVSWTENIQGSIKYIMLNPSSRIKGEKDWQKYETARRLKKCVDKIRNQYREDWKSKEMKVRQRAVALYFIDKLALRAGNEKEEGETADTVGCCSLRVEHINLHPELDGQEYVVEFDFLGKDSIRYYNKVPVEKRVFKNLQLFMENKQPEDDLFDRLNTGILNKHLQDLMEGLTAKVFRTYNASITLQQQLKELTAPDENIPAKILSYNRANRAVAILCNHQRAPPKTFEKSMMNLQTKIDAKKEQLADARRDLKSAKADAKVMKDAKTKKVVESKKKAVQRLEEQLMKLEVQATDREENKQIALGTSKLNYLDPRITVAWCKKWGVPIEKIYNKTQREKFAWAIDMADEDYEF
Method: as §1

DU-145 = test: NCI screen antiproliferative activity, prostate DU-145; assay type: cell-based, human; conditions: concentration corresponding to 50% growth inhibition, read-out: cytotoxicity GI50 prostate DU-145
Method: as §1

[1] = test system: human cancer cell lines in the National Cancer Institute screen; test: NCI screen mean graph midpoint over approximately 55 cancer cell lines; assay type: cell-based; conditions: for MGM (mean graph midpoint for growth inhibition): average GI50 of all human cancer cell lines tested (approximately 55), test range 10^-8 to 10^-4 molar
Method: as §1

MDA-MB-435 = test: NCI screen antiproliferative activity, breast MDA-MB-435; assay type: cell-based, human; conditions: concentration corresponding to 50% growth inhibition, read-out: cytotoxicity GI50 breast MDA-MB-435
Method: as §1

HOP-62 = test: NCI screen antiproliferative activity, lung HOP-62; assay type: cell-based, human; conditions: concentration corresponding to 50% growth inhibition, read-out: cytotoxicity GI50 lung HOP-62
Method: as §1

UACC-62 = test: NCI screen antiproliferative activity, melanoma UACC-62; assay type: cell-based, human; conditions: concentration corresponding to 50% growth inhibition, read-out: cytotoxicity GI50 melanoma UACC-62
Method: as §1

SF-268 = test: NCI screen antiproliferative activity, CNS SF-268; assay type: cell-based, human; conditions: concentration corresponding to 50% growth inhibition, read-out: cytotoxicity GI50 CNS SF-268
Method: as §1

OVCAR-3 = test: NCI screen antiproliferative activity, ovarian OVCAR-3; assay type: cell-based, human; conditions: concentration corresponding to 50% growth inhibition, read-out: cytotoxicity GI50 ovarian OVCAR-3
Method: as §1

HCT-116 = test: NCI screen antiproliferative activity, colon HCT-116; assay type: cell-based, human; conditions: concentration corresponding to 50% growth inhibition, read-out: cytotoxicity GI50 colon HCT-116
Method: as §1

[2] = average GI50 of all cell lines tested

Compound: O=C1c2cc3c(cc2C2C1c1ccc([N+](=O)[O-])cc1C(=O)N2CCCBr)OCO3 (racemic) [Compound 12]
GI50 (SN12C): < 0.01 µM
Top 1 Cleavage (topoisomerase I (top1)): +
GI50 (DU-145): < 0.01 µM
activity (MGM) [1, 2]: 16 nm
MGM (mean graph midpoint for growth inhibition) [1]: 0.016 ± 0.003 µM
GI50 (MDA-MB-435): < 0.01 µM
GI50 (HOP-62): < 0.01 µM
GI50 (UACC-62): < 0.01 µM
GI50 (SF-268): < 0.01 µM
GI50 (OVCAR-3): < 0.01 µM
GI50 (HCT-116): < 0.01 µM

Top 1 Cleavage (topoisomerase I (top1)): +
Compound: O=C1c2cc3c(cc2C2C1c1ccc([N+](=O)[O-])cc1C(=O)N2CCCCl)OCO3 (racemic) [Compound 13]
GI50 (SN12C): < 0.01 µM
GI50 (DU-145): < 0.01 µM
activity (MGM) [1, 2]: 18 nm
MGM (mean graph midpoint for growth inhibition) [1]: 0.018 ± 0.001 µM
GI50 (MDA-MB-435): < 0.01 µM
GI50 (HOP-62): < 0.01 µM
GI50 (UACC-62): < 0.01 µM
GI50 (SF-268): < 0.01 µM
GI50 (OVCAR-3): < 0.01 µM
GI50 (HCT-116): < 0.01 µM

Top 1 Cleavage (topoisomerase I (top1)): +++
Compound: CN1C(=O)c2cc([N+](=O)[O-])ccc2C2C(=O)c3cc4c(cc3C21)OCO4 (racemic) [Compound 14]
GI50 (SN12C): 0.033 µM
GI50 (DU-145): 0.05 µM
MGM (mean graph midpoint for growth inhibition) [1]: 0.105 ± 0.007 µM
GI50 (MDA-MB-435): 0.107 µM
GI50 (HOP-62): 0.158 µM
GI50 (UACC-62): 0.026 µM
GI50 (SF-268): 0.024 µM
GI50 (OVCAR-3): 0.03 µM
GI50 (HCT-116): 0.014 µM

Top 1 Cleavage (topoisomerase I (top1)): +++
Compound: O=C1c2cc3c(cc2-c2c1c1ccc([N+](=O)[O-])cc1c(=O)n2CCCCl)OCO3 [Compound 15]
GI50 (SN12C): 0.132 µM
GI50 (DU-145): 0.098 µM
MGM (mean graph midpoint for growth inhibition) [1]: 0.832 µM
GI50 (MDA-MB-435): 1.82 µM
GI50 (HOP-62): 0.41 µM
GI50 (UACC-62): 0.229 µM
GI50 (SF-268): 0.148 µM
GI50 (OVCAR-3): 9.12 µM
GI50 (HCT-116): 2.4 µM

Compound: [N-]=[N+]=NCCCn1c2c(c3ccc([N+](=O)[O-])cc3c1=O)C(=O)c1cc3c(cc1-2)OCO3 [Compound 16]
GI50 (SN12C): < 0.01 µM
Top 1 Cleavage (topoisomerase I (top1)): ++++
GI50 (DU-145): < 0.01 µM
cytotoxicity (MGM) as stated in text [1, 2]: 98 nM
MGM (mean graph midpoint for growth inhibition) [1]: 0.098 ± 0.06 µM
GI50 (MDA-MB-435): < 0.01 µM
GI50 (HOP-62): < 0.01 µM
GI50 (UACC-62): < 0.01 µM
GI50 (SF-268): < 0.01 µM
GI50 (OVCAR-3): < 0.01 µM
GI50 (HCT-116): < 0.01 µM

Compound: Cl.Nc1ccc2c3c(n(CCCCl)c(=O)c2c1)-c1cc2c(cc1C3=O)OCO2 [Compound 18]
GI50 (SN12C): > 100 µM
Top 1 Cleavage (topoisomerase I (top1)): 0
MGM (mean graph midpoint for growth inhibition) [1]: 25 µM
GI50 (MDA-MB-435): > 100 µM
GI50 (UACC-62): > 100 µM
GI50 (SF-268): > 100 µM
GI50 (OVCAR-3): > 100 µM

Top 1 Cleavage (topoisomerase I (top1)): 0
Compound: O=C1c2ccccc2-c2c1c1ccc([N+](=O)[O-])cc1c(=O)n2CCCBr [Compound 20]
GI50 (SN12C): > 100 µM
GI50 (DU-145): > 100 µM
MGM (mean graph midpoint for growth inhibition) [1]: 40 µM
GI50 (MDA-MB-435): > 100 µM
GI50 (UACC-62): > 100 µM
GI50 (SF-268): > 100 µM
GI50 (OVCAR-3): > 100 µM
GI50 (HCT-116): 3.45 µM

Compound: O=C1c2ccccc2-c2c1c1ccc([N+](=O)[O-])cc1c(=O)n2CCCCl [Compound 22]
GI50 (SN12C; Homo sapiens, SN12C): 26.9 µM
GI50 (DU-145; Homo sapiens, DU-145): 40.7 µM
MGM (mean graph midpoint for growth inhibition) [1]: 18.2 µM
GI50 (MDA-MB-435; Homo sapiens, MDA-MB-435): 31.6 µM
GI50 (HOP-62; Homo sapiens, HOP-62): 43.7 µM
GI50 (UACC-62; Homo sapiens, UACC-62): 20.4 µM
GI50 (SF-268; Homo sapiens, SF-268): 23.4 µM
GI50 (OVCAR-3; Homo sapiens, OVCAR-3): 4.9 µM
GI50 (HCT-116; Homo sapiens, HCT-116): 3.63 µM

Compound: [N-]=[N+]=NCCCn1c2c(c3ccc([N+](=O)[O-])cc3c1=O)C(=O)c1ccccc1-2 [Compound 23]
GI50 (SN12C; Homo sapiens, SN12C): 72.4 µM
GI50 (DU-145; Homo sapiens, DU-145): > 100 µM
MGM (mean graph midpoint for growth inhibition) [1]: 13.5 µM
GI50 (MDA-MB-435; Homo sapiens, MDA-MB-435): > 100 µM
GI50 (HOP-62; Homo sapiens, HOP-62): > 100 µM
GI50 (UACC-62; Homo sapiens, UACC-62): 44.7 µM
GI50 (SF-268; Homo sapiens, SF-268): 79.4 µM
GI50 (HCT-116; Homo sapiens, HCT-116): 8.13 µM

Compound: Cl.NCCCn1c2c(c3ccc([N+](=O)[O-])cc3c1=O)C(=O)c1ccccc1-2 [Compound 24]
GI50 (SN12C): 0.102 µM
GI50 (DU-145): 0.148 µM
MGM (mean graph midpoint for growth inhibition) [1]: 0.245 µM
GI50 (HOP-62): 0.275 µM
GI50 (UACC-62): 0.372 µM
GI50 (SF-268): 0.302 µM
GI50 (HCT-116): 0.085 µM
